Results reported in patent publication US20250195521A1 (Revolution Medicines, Inc., priority 2020, published 2025).
pEC50, pIC50: −log10 of the molar value.

What was measured:
[1] = target: KRAS G12V (Homo sapiens (Human), UniProt P01116+P62937, G12V); assay: Ras-Raf disruption/FRET/MOA assay (BRAF RBD, Cyclophilin A); format: biochemical; conditions: read-out: KRAS G12V FRET IC50
In short: (§1)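 His6-K-Ras-GMPPNP (12.5 nM), GST-BRAF RBD (50 nM) and tagless Cyclophilin A (25 μM) were combined in 25 mM HEPES pH 7.3 with 100 mM NaCl, 5 mM MgCl2, 0.1% BSA and 0.002% Tween20, with compound as a 10-point 3-fold series from 30 μM final, then incubated 3 h at 25° C.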

[2] = target: KRAS G12C (Homo sapiens (Human), UniProt P01116+P62937, G12C); assay: as above; format: biochemical; conditions: read-out: KRAS G12C FRET IC50
KRAS G12C, sequence (P01116-2 other isoform, or with tags, fused parts or gaps G12C): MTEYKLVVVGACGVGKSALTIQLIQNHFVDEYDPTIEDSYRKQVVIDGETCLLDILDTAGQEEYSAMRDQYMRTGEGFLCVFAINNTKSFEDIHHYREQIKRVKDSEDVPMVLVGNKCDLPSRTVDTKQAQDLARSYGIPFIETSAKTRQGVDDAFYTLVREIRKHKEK
KRAS G12C, sequence (P62937 whole entry): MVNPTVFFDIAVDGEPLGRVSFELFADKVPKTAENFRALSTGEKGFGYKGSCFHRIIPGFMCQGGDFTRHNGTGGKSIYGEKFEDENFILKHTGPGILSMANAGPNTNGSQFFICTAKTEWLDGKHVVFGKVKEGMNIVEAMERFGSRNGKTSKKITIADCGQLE
In short: as §1

[3] = target: KRAS G13C (Homo sapiens (Human), UniProt P01116+P62937, G13C); assay: as above; format: biochemical; conditions: read-out: KRAS G13C FRET IC50
KRAS G13C, sequence (P01116 other isoform, or with tags, fused parts or gaps G13C): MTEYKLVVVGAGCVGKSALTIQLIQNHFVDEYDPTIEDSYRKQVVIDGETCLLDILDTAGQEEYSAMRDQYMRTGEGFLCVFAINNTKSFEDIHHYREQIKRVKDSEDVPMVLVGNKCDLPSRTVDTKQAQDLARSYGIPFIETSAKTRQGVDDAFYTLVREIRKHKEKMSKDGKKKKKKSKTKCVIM
KRAS G13C, sequence (P62937 whole entry): as the sequence (P62937 whole entry) above
In short: as §1

[4] = target: KRAS G12D (Homo sapiens (Human), UniProt P01116+P62937, G12D); assay: as above; format: biochemical; conditions: read-out: KRAS G12D FRET IC50
KRAS G12D, sequence (P01116 other isoform, or with tags, fused parts or gaps G12D): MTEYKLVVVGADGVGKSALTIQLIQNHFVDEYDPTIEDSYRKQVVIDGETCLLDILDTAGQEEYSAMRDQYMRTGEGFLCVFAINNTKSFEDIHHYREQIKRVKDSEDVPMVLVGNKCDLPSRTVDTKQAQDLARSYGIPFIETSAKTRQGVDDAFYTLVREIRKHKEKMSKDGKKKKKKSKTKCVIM
KRAS G12D, sequence (P62937 whole entry): as the sequence (P62937 whole entry) above
In short: as §1

[5] = target: NRAS G12C (Homo sapiens (Human), UniProt P01111+P62937, G12C); assay: as above; format: biochemical; conditions: read-out: NRAS G12C FRET data IC50
NRAS G12C, sequence (P01111 whole entry G12C): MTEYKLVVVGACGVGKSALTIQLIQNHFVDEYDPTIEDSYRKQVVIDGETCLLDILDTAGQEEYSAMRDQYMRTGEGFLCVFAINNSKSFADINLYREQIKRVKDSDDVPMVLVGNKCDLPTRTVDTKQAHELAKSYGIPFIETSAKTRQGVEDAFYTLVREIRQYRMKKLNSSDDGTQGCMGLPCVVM
NRAS G12C, sequence (P62937 whole entry): as the sequence (P62937 whole entry) above
In short: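 TR-FRET read after 1.5 h with 10 nM anti-His Eu-W1024 and 50 nM anti-GST APC, following 3 h at 25 °C of GMPPNP-loaded His6-Ras (12.5 nM), GST-BRAF RBD (50 nM) and Cyclophilin A (25 μM) with compound from 30 μM final, 10 points, 3-fold. IC50 reported; pH 7.3 HEPES, 100 mM NaCl.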

[6] = target: KRAS WT (Homo sapiens (Human), UniProt P01116+P62937); assay: as above; format: biochemical; conditions: read-out: KRAS WT FRET data IC50
KRAS WT, sequence (P01116 other isoform, or with tags, fused parts or gaps): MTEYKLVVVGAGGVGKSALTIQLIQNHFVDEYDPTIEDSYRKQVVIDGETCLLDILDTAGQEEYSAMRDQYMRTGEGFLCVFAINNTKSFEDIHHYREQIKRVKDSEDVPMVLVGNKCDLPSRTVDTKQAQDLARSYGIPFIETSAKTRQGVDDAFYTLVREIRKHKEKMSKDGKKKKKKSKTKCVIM
KRAS WT, sequence (P62937 whole entry): as the sequence (P62937 whole entry) above
In short: as §1

[7] = target: KRAS G12S (Homo sapiens (Human), UniProt P01116+P62937, G12S); assay: as above; format: biochemical; conditions: read-out: KRAS G12S FRET IC50
KRAS G12S, sequence (P01116 other isoform, or with tags, fused parts or gaps G12S): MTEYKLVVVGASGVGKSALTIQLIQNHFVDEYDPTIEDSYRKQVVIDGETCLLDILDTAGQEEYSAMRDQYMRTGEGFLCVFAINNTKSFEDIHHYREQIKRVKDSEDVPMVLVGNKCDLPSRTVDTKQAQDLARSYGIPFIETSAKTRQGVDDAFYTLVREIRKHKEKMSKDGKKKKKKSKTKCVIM
KRAS G12S, sequence (P62937 whole entry): as the sequence (P62937 whole entry) above
In short: as §1

[8] = target: KRAS G13D (Homo sapiens (Human), UniProt P01116+P62937, G13D); assay: as above; format: biochemical; conditions: read-out: KRAS G13D FRET data IC50
KRAS G13D, sequence (P01116 other isoform, or with tags, fused parts or gaps G13D): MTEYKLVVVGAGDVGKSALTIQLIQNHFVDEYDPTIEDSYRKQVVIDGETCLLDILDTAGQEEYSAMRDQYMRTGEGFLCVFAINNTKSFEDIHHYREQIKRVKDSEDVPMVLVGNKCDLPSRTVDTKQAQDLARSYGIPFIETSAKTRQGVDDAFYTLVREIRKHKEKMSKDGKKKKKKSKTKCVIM
KRAS G13D, sequence (P62937 whole entry): as the sequence (P62937 whole entry) above
In short: as §1

[9] = tested on: Capan-1 cells (K-Ras G12V); assay: CellTiter-Glo cell viability, Capan-1; format: cell-based, human; conditions: Homo sapiens, CAPAN-1, 120 h, K-Ras G12V, 5-day treatment; read-out: Capan-1 Cell Viability IC50
In short: (§2)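 Endpoint: CellTiter-Glo luminescence on day 5, following ~30 min at room temperature. Data as (sample/mean DMSO)×100, four-parameter logistic fit.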

[10] = tested on: K-Ras G12C (NCI-H358 cells); assay: Potency assay: pERK in NCI-H358 cells; format: cell-based, human; conditions: Homo sapiens; NCI-H358 cells, 4 hours; read-out: pERK EC50 (H358 KRAS G12C)
In short: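 Cells plated the day before were exposed for 4 h at 37° C, 5% CO2 to a 10-point, 3-fold DMSO dilution series (10 mM top stock), in duplicate. Phospho-ERK was read by AlphaLISA SureFire Ultra or by In-Cell Western with DRAQ5 DNA stain, and IC50 came from a 4-parameter sigmoidal fit.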

[11] = tested on: NCI-H358 cells (K-Ras G12C); assay: CellTiter-Glo cell viability, NCI-H358; format: cell-based, human; conditions: Homo sapiens, NCI-H358, 120 h, K-Ras G12C, 5-day treatment; read-out: H358 Cell Viability IC50
In short: as §2

KRAS G12V, sequence (P01116 other isoform, or with tags, fused parts or gaps G12V): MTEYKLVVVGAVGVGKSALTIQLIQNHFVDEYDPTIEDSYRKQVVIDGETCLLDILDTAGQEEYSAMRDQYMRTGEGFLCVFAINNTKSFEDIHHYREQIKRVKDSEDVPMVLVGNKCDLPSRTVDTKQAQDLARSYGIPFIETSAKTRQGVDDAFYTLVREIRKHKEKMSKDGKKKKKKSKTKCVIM
KRAS G12V, sequence (P62937 whole entry): as the sequence (P62937 whole entry) above

CCn1c(-c2cccnc2[C@H](C)OC)c2c3cc(ccc31)-c1csc(n1)C[C@H](NC(=O)[C@H](C(C)C)N(C)S(=O)(=O)N1CC(OC)C1)C(=O)N1CCC[C@H](N1)C(=O)OCC(C)(C)C2 [Compound A322]
5.00 to 6.00: pIC50 [4] | pIC50 [7] | pIC50 [8]
6.00 to 7.00: pIC50 [1] | pIC50 [2] | pIC50 [3] | pIC50 [5] | pIC50 [6] | pIC50 [9] | pIC50 [11]
> 5.30: pEC50 [10]

CCn1c(-c2cccnc2[C@H](C)OC)c2c3cc(ccc31)-c1csc(n1)C[C@H](NC(=O)[C@H](C(C)C)N(C)C(=O)N1CC(OC(F)(F)F)C1)C(=O)N1CCC[C@H](N1)C(=O)OCC(C)(C)C2 [Compound A330]
7.00 to 8.00: pIC50 [2] | pIC50 [5] | pIC50 [9] | pIC50 [11]
6.00 to 7.00: pIC50 [1] | pIC50 [3] | pIC50 [6] | pIC50 [7] | pIC50 [8]
5.00 to 6.00: pIC50 [4]
> 5.30: pEC50 [10]

CCN(C)C(=O)N(C)[C@H](C(=O)N[C@H]1Cc2nc(cs2)-c2ccc3c(c2)c(c(-c2cccnc2[C@H](C)OC)n3CC)CC(C)(C)COC(=O)[C@@H]2CCCN(N2)C1=O)C(C)C [Compound A336]
> 5.30: pEC50 [10]
7.00 to 8.00: pIC50 [2] | pIC50 [5] | pIC50 [6] | pIC50 [9] | pIC50 [11]
6.00 to 7.00: pIC50 [1] | pIC50 [3] | pIC50 [4] | pIC50 [7] | pIC50 [8]

CCn1c(-c2cccnc2[C@H](C)OC)c2c3cc(ccc31)-c1cc(O)cc(c1)C[C@H](NC(=O)[C@H](C(C)C)N(C)C(=O)[C@@H]1CCN(C(=O)[C@]3(C)CCCN3C)C1)C(=O)N1CCC[C@H](N1)C(=O)OCC(C)(C)C2 [Compound A342]
7.00 to 8.00: pIC50 [1] | pIC50 [2] | pIC50 [3] | pIC50 [4] | pIC50 [5] | pIC50 [6] | pIC50 [7] | pIC50 [8] | pIC50 [11]
> 5.30: pEC50 [10]
6.00 to 7.00: pIC50 [9]

CCn1c(-c2cccnc2[C@H](C)OC)c2c3cc(ccc31)-c1csc(n1)C[C@H](NC(=O)[C@H](C(C)C)N(C)C(=O)N1CC(N)C1)C(=O)N1CCC[C@H](N1)C(=O)OCC(C)(C)C2 [Compound A343]
> 5.30: pEC50 [10]
6.00 to 7.00: pIC50 [1] | pIC50 [3] | pIC50 [4] | pIC50 [6] | pIC50 [7] | pIC50 [8] | pIC50 [9] | pIC50 [11]
7.00 to 8.00: pIC50 [2] | pIC50 [5]

CCn1c(-c2cccnc2[C@H](C)OC)c2c3cc(ccc31)-c1cc(O)cc(c1)C[C@H](NC(=O)[C@H](C(C)C)N(C)C(=O)[C@H]1CCN(C(=O)OC3CN(C)C3)C1)C(=O)N1CCC[C@H](N1)C(=O)OCC(C)(C)C2 [Compound A348]
7.00 to 8.00: pIC50 [1] | pIC50 [2] | pIC50 [3] | pIC50 [4] | pIC50 [5] | pIC50 [6] | pIC50 [7] | pIC50 [8] | pIC50 [11]
> 5.30: pEC50 [10]
6.00 to 7.00: pIC50 [9]

CCn1c(-c2cccnc2[C@H](C)OC)c2c3cc(ccc31)-c1cc(O)cc(c1)C[C@H](NC(=O)[C@H](C(C)C)N(C)C(=O)[C@H]1CCN(C(=O)[C@@]3(C)CCCN3C)C1)C(=O)N1CCC[C@H](N1)C(=O)OCC(C)(C)C2 [Compound A379]
6.00 to 7.00: pIC50 [9]
> 5.30: pEC50 [10]
7.00 to 8.00: pIC50 [1] | pIC50 [2] | pIC50 [3] | pIC50 [4] | pIC50 [5] | pIC50 [6] | pIC50 [7] | pIC50 [8] | pIC50 [11]

CCn1c(-c2cccnc2[C@H](C)OC)c2c3cc(ccc31)-c1cc(O)cc(c1)C[C@H](NC(=O)[C@H](C(C)C)N(C)C(=O)C13CCC(CO1)C3)C(=O)N1CCC[C@H](N1)C(=O)OCC(C)(C)C2 [Compound A410]
7.00 to 8.00: pIC50 [2] | pIC50 [3] | pIC50 [6]
6.00 to 7.00: pIC50 [1] | pIC50 [4] | pIC50 [5] | pIC50 [7] | pIC50 [8] | pIC50 [9] | pIC50 [11]
